Literature values in US20260345480A1, “PHARMACEUTICAL DOSAGE FORMS FOR PULSATILE RELEASE” (CHIESI FARMACEUTICI S.P.A., priority 2023, published 2026).

System: animals
Settings: continuous infusion for periods longer than 24 hours

SMILES: Cc1c(O)c(=O)ccn1C [deferiprone]
- toxicity on continuous infusion (in words): potential toxicity of deferiprone observed in animals undergoing continuous infusion for periods longer than 24 hours
